How the values were obtained:
Type in all cases: cell-based
[1] = test system: HDAC class I (p21 reporter gene); assay: HDAC subtype reporter gene assay, p21-promoter luciferase in HeLa cells; details: Homo sapiens, M-HeLa, read-out: % of SAHA Response for HDAC class I at 10 μM (p21 reporter gene), 24 hours
Description: (§1) Measurement of inhibition of HDAC subtypes activity in cells by reporter gene assay: HDAC subtype selectivity inhibition assay of tested compounds was carried out by several reporter gene assays experiments. Briefly, HeLa cells were seeded in 96-well plates the day before transfection to give a confluence of 50-80%. Cells were transfected with one of reporter gene plasmids containing a promoter sequences or response elements upstream of a luciferase gene construct using FuGene6 transfection reagent according to the manufacturer's instructions (Roche). The promoters or response elements including p21-promoter, gdf11-promoter, MEF-binding element (MEF2), Nur77-promoter were fused upstream to the luciferase gene reporter construct. For normalizing the transfection efficiency, a GFP expression plasmid was cotransfected. Cells were allowed to express protein for 24 hours followed by addition of individual compounds or the vehicle (DMSO). 24 hours later, the cells were harvested and the luciferase assays were performed using the luciferase assay kit according to the manufacturer's instructions (Promega). To normalize the data from the luciferase assays, GFP activity from transfected cells was measured in a microtiter-plate reading fluorimeter capable of excitation at a wavelength at 485 nm and detection of emitted light at 527 nm.

[2] = test system: HDAC3 (gdf11 reporter gene); assay: HDAC subtype reporter gene assay, gdf11-promoter luciferase in HeLa cells; details: Homo sapiens, M-HeLa, read-out: % of SAHA Response for HDAC3 at 10 μM (gdf11 reporter gene), 24 hours
Description: as §1

[3] = test system: HDAC4/5 (MEF2 reporter gene); assay: HDAC subtype reporter gene assay, MEF-binding element (MEF2) luciferase in HeLa cells; details: Homo sapiens, M-HeLa, read-out: % of SAHA Response for HDAC4/5 at 10 μM (MEF2 reporter gene), 24 hours
Description: as §1

[4] = test system: HDAC7 (Nur77 reporter gene); assay: HDAC subtype reporter gene assay, Nur77-promoter luciferase in HeLa cells; details: Homo sapiens, M-HeLa, read-out: % of SAHA Response for HDAC7 at 10 μM (Nur77 reporter gene), 24 hours
Description: as §1

Measured: Emax at 10 µM

O=C(CCCCCCC(=O)Nc1ccccc1)NO [SAHA, suberoylanilide hydroxamic acid, reference compound]
100%: all assays above

— patent publication US7863315B2, “2-indolinone derivatives as selective histone deacetylase inhibitors” (Shenzhen Chipscreen Biosciences, Ltd., priority 2008, dated 2011)
